Data from patent publication US7739055B2, “Methods and systems for generating and evaluating peptides” (priority 2005, dated 2010).
In brackets after ≈: the same amount, converted by molar mass. Like-named read-outs stand apart in the source and are kept apart here. Where a SMILES comes first, the peptide text is derived from it.

Columns and labels:
[1] = test system: Sterne strain of Bacillus anthracis
[2] = test system: human red blood cells
[3] = test system: Smith Diffuse strain of Staphylococcus aureus
[4] = test system: Escherichia coli
[5] = test system: B. cereus
[6] = first concentration that prohibits growth by OD at 24 hours, Table 1

Compound | MIC B. anthracis [1] | HC50, hemolytic concentration at which the peptides lyse 50% of human red blood cells [2] | MIC S. aureus ([3]; Smith Diffuse strain of) [µg/mL] | MIC E. coli ([4]; 24 h) [µg/mL] | MIC B. cereus ([5]; 24 h) [µg/mL] | MIC S. aureus ([3]; Smith Diffuse strain, Table 1) | MIC E. coli [4, 6] | MIC B. cereus [5, 6] | MIC S. aureus [3] | MIC B. cereus [5]
CC(C)C[C@H](NC(=O)[C@H](CCCCN)NC(=O)[C@H](Cc1ccccc1)NC(=O)[C@@H](NC(=O)[C@@H](NC(=O)CNC(=O)[C@H](CC(C)C)NC(=O)[C@@H](N)Cc1ccccc1)C(C)C)C(C)C)C(=O)N[C@@H](C)C(=O)N[C@@H](CO)C(=O)N[C@@H](CCCCN)C(=O)N[C@H](C(=O)N[C@@H](Cc1ccccc1)C(=O)N1CCC[C@H]1C(=O)N[C@@H](C)C(=O)N[C@H](C(=O)N[C@@H](Cc1ccccc1)C(=O)NCC(=O)N[C@@H](CCCCN)C(=O)N[C@H](C(=O)O)C(C)C)C(C)C)C(C)C [Peptide 28] (H-FLGVVFKLASKVFPAVFGKV-OH; N-terminus and C-terminus assumed) | 16 µg/mL (≈ 7.43 µM) | 42 µg/mL | 8 (≈ 3.71 µM) | 64 (≈ 29.7 µM) | 16 (≈ 7.43 µM) | – | – | – | – | –
CC[C@H](C)[C@H](NC(=O)[C@H](CC(C)C)NC(=O)[C@H](C)NC(=O)[C@@H]1CCCN1C(=O)[C@H](Cc1ccccc1)NC(=O)[C@@H](NC(=O)[C@H](CCCCN)NC(=O)[C@H](CO)NC(=O)[C@H](C)NC(=O)[C@@H](NC(=O)[C@H](CCCNC(=N)N)NC(=O)[C@H](Cc1ccccc1)NC(=O)[C@H](CC(C)C)NC(=O)[C@@H](N)Cc1ccccc1)C(C)C)C(C)C)C(=O)NCC(=O)N[C@@H](CCCCN)C(=O)N[C@@H](Cc1ccccc1)C(=O)N[C@@H](CCCCN)C(=O)N[C@@H](CCCCN)C(=O)N[C@@H](CCCCN)C(=O)O [Peptide 51] (H-FLFRVASKVFPALIGKFKKK-OH; N-terminus and C-terminus assumed) | 16 µg/mL (≈ 6.88 µM) | greater than 512 μg/ml | 16 (≈ 6.88 µM) | 64 (≈ 27.5 µM) | 16 (≈ 6.88 µM) | – | – | – | – | –
CC(C)C[C@H](NC(=O)CNC(=O)[C@H](Cc1ccccc1)NC(=O)[C@H](CC(C)C)NC(=O)[C@@H](N)Cc1ccccc1)C(=O)N[C@@H](C)C(=O)N[C@@H](CO)C(=O)N[C@@H](CCCCN)C(=O)N[C@H](C(=O)N[C@@H](Cc1ccccc1)C(=O)N1CCC[C@H]1C(=O)N[C@@H](C)C(=O)N[C@H](C(=O)N[C@@H](Cc1ccc(O)cc1)C(=O)N[C@@H](CS)C(=O)N[C@@H](CCCCN)C(=O)N[C@H](C(=O)N[C@H](C(=O)N[C@@H](CCCNC(=N)N)C(=O)N[C@@H](CCCCN)C(=O)O)[C@@H](C)O)C(C)C)C(C)C)C(C)C [Peptide 5] (H-FLFGLASKVFPAVYCKVTRK-OH; N-terminus and C-terminus assumed) | 128 µg/mL (≈ 56.3 µM) | – | 256 (≈ 113 µM) | 64 (≈ 28.1 µM) | 256 (≈ 113 µM) | – | – | – | – | –
GVSVAGAKKVKVLFVFPFLF [Shuffled 28] | + (key: +: MIC greater than 256 ug/mL; ++: MIC greater than 128 ug/mL, not sufficiently soluble to test as 256 ug/mL) | – | – | – | – | + (MIC greater than 256 ug/mL) | + (MIC greater than 256 ug/mL) | + (MIC greater than 256 ug/mL) | – | –
THIHMNARLLIRSPFTDPQL [Peptide 10] | + (key: +: MIC greater than 256 ug/mL; ++: MIC greater than 128 ug/mL, not sufficiently soluble to test as 256 ug/mL) | – | – | – | – | – | + (MIC greater than 256 ug/mL) | – | + (key: +: MIC greater than 256 ug/mL; ++: MIC greater than 128 ug/mL, not sufficiently soluble to test as 256 ug/mL) | + (key: +: MIC greater than 256 ug/mL; ++: MIC greater than 128 ug/mL, not sufficiently soluble to test as 256 ug/mL)
CC(C)C[C@H](NC(=O)[C@H](C)NC(=O)[C@H](CO)NC(=O)[C@H](Cc1ccccc1)NC(=O)[C@@H](NC(=O)[C@H](CO)NC(=O)[C@@H]1CCCN1C(=O)[C@@H](NC(=O)[C@@H](NC(=O)[C@H](CCCCN)NC(=O)[C@H](CO)NC(=O)[C@H](C)NC(=O)[C@H](CC(C)C)NC(=O)[C@H](CCCCN)NC(=O)[C@H](Cc1ccccc1)NC(=O)[C@@H](NC(=O)[C@H](Cc1ccccc1)NC(=O)[C@@H](N)CO)C(C)C)C(C)C)C(C)C)C(C)C)C(=O)N[C@H](C(=O)N[C@@H](CCCNC(=N)N)C(=O)O)[C@@H](C)O [Peptide 43] (H-SFVFKLASKVVPSVFSALTR-OH; N-terminus and C-terminus assumed) | 128 µg/mL | – | 256 | 256 | 256 | – | – | – | – | –
